# Paper PMC4829233, “Identification of Novel Chemical Scaffolds Inhibiting Trypanothione Synthetase from Pathogenic Trypanosomatids” (PLoS Neglected Tropical Diseases, 2016)
# Like-named read-outs stand apart in the source and are kept apart here.
# How the values were obtained:
# Test in all cases: biochemical
# [1] = target: TcTryS (Trypanosoma cruzi trypanothione synthetase) (Trypanosoma cruzi, UniProt Q9GT49); type: biochemical; details: for remaining activity at 30 µM: read-out: TcTryS Activity ± 2σn-1 (%); for inhibition at 30 µM: read-out: % TcTryS inhibition ± 2σn-1
# [2] = target: LiTryS (Leishmania infantum trypanothione synthetase) (Leishmania infantum, UniProt A4I2Z3); type: biochemical; details: for activity at 30 µM: read-out: LiTryS Activity ± 2σn-1 (%)
# [3] = target: TbTryS (Trypanosoma brucei trypanothione synthetase) (Trypanosoma brucei brucei, UniProt Q8IEX1); details: for activity at 30 µM: read-out: TbTryS Activity ± 2σn-1 (%)
# TbTryS (Trypanosoma brucei trypanothione synthetase), sequence (Q8IEX1 1-627): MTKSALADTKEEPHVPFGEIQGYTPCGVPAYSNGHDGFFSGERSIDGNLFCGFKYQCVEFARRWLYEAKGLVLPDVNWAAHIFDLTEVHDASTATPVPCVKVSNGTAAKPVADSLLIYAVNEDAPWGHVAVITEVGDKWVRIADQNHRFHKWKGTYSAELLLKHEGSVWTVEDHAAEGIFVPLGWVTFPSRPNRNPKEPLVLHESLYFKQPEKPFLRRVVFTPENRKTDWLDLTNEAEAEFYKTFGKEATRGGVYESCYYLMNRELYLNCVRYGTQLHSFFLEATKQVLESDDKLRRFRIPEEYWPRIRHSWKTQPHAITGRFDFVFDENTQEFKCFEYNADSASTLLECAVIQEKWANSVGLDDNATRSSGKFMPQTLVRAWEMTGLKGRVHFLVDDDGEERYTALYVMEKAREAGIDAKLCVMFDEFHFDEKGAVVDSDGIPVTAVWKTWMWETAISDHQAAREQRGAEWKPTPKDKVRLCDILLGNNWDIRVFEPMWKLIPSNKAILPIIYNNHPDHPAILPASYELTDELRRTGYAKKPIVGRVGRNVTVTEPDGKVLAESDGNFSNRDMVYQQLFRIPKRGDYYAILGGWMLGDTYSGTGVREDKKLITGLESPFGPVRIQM
# TcTryS (Trypanosoma cruzi trypanothione synthetase), sequence (Q9GT49 whole entry): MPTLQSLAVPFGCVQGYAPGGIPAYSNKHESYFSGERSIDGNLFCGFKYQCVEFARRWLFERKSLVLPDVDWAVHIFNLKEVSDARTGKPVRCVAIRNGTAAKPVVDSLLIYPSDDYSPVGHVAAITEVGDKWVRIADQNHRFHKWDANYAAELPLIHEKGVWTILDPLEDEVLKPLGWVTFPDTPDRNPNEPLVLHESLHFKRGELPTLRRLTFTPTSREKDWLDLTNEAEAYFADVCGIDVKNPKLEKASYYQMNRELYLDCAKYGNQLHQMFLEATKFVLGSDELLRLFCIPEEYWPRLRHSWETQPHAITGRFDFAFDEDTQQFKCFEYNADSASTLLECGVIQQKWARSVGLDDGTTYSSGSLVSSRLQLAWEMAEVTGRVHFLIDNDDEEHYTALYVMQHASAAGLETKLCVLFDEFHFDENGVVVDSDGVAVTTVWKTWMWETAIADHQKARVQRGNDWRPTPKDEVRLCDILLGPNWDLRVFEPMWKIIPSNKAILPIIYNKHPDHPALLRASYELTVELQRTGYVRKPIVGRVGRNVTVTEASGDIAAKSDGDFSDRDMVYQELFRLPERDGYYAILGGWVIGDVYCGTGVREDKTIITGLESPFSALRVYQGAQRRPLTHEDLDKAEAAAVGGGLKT
# LiTryS (Leishmania infantum trypanothione synthetase), sequence (A4I2Z3 1-652): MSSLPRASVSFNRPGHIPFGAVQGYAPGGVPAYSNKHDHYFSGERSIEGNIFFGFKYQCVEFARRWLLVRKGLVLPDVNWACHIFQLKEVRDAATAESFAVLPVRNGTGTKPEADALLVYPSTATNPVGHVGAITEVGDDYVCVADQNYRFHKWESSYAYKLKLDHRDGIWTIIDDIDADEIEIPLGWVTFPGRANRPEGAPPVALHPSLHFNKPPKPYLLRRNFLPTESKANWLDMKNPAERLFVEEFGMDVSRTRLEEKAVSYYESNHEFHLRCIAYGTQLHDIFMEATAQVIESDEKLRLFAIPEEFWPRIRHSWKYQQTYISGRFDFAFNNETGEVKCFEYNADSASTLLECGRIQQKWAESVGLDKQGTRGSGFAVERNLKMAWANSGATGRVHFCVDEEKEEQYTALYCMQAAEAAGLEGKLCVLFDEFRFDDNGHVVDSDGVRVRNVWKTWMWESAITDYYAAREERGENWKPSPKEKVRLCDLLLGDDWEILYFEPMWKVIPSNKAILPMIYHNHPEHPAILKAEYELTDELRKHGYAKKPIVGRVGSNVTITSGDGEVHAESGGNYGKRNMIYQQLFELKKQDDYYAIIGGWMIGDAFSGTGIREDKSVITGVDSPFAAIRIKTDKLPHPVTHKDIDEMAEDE
Structure (SMILES),TcTryS Activity ± 2σn-1 (%) [1],remaining activity at 30 µM [1] [%],LiTryS Activity ± 2σn-1 (%) [2],TbTryS Activity ± 2σn-1 (%) [3],further results
COc1ccc(C2C(C(=O)c3ccc4c(c3)OCCO4)=C(O)C(=O)N2c2nc3ccc(C)cc3s2)cc1 (stereo not shown) [AD81],109.7 ± 8.9; 4%,110 ± 8.9,–,–,activity at 30 µM [2]: 83.9 ± 4.2%; TbTryS Activity ± 2σn-1 (%) ([3]; 30 µM): 128.2 ± 3.6 ; 8 (0.93) %; activity at 30 µM [3]: 128%
Cc1ccc2nc(N3C(=O)C(O)=C(C(=O)c4ccc5c(c4)OCCO5)C3c3ccc(O)cc3)sc2c1 (stereo not shown) [AD82],103.4 ± 6.4; 2%,–,86.2 ± 5.8; 4%,107.7 ± 6.4; 4%,–
O=C(C1=C(O)C(=O)N(c2nc3ccc(Cl)cc3s2)C1c1ccc(O)cc1)c1ccc2c(c1)OCCO2 (stereo not shown) [AD83],93.6 ± 4.7; 3 (0.93) %,–,83.9 ± 3.8; 4%,106.9 ± 4.7; 3%,–
COc1ccc(C2C(C(=O)c3ccc4c(c3)OCCO4)=C(O)C(=O)N2c2nc3ccc(Cl)cc3s2)cc1 (stereo not shown) [AD84],98.7 ± 5.1; 4%,98.7 ± 5.1,–,–,activity at 30 µM [2]: 82.1 ± 4%; TbTryS Activity ± 2σn-1 (%) ([3]; 30 µM): 119.0 ± 6.3; 8 (0.95) %; activity at 30 µM [3]: 119%
O=C(C1=C(O)C(=O)N(c2nc3ccc(Cl)cc3s2)C1c1ccc(F)cc1)c1ccc2c(c1)OCCO2 (stereo not shown) [ADMRC150],81.2 ± 4.1; 4%,–,63.0 ± 6.8; 7%,101.4 ± 8.2; 12%,% LiTryS inhibition ± 2σn-1 [2]: ~35%
Cc1ccc2nc(N3C(=O)C(O)=C(C(=O)c4ccc5c(c4)OCCO5)C3c3ccccc3)sc2c1 (stereo not shown) [ADMRC151],97.0 ± 5.2; 3%,–,83.1 ± 2.3; 3%,107.7 ± 6.1; 3%,–
COc1cc(C2C(C(=O)c3ccc4c(c3)OCCO4)=C(O)C(=O)N2c2nc3ccc(C)cc3s2)ccc1O (stereo not shown) [ADMRC152],103.1 ± 6.2; 3%,–,92.5 ± 6.6; 4%,115.4 ± 4.3; 3%,–
COc1ccc(C2C(C(=O)c3ccc4c(c3)OCCO4)=C(O)C(=O)N2c2nc3ccc(C)cc3s2)cc1OC (stereo not shown) [ADMRC153],109.3 ± 4.7; 4%,–,87.6 ± 6.0; 4%,103.3 ± 3.2; 3%,–
Cc1ccc2nc(N3C(=O)C(O)=C(C(=O)c4ccc5c(c4)OCCO5)C3c3ccc(F)cc3)sc2c1 (stereo not shown) [ADMRC154],93.9 ± 2.1; 3%,–,64.7 ± 3.7; 4%,110.3 ± 8.7 ; 12%,% LiTryS inhibition ± 2σn-1 [2]: ~35%
COc1ccc2nc(N3C(=O)C(O)=C(C(=O)c4ccc5c(c4)OCCO5)C3c3ccc(OC)c(OC)c3)sc2c1 (stereo not shown) [ADMRC155],104.0 ± 6.6; 4%,–,89.3 ± 7.4; 3%,97.5 ± 3.4; 3%,–
COc1ccc2nc(N3C(=O)C(O)=C(C(=O)c4ccc5c(c4)OCCO5)C3c3ccc(O)c(OC)c3)sc2c1 (stereo not shown) [ADMRC156],102.2 ± 8.8; 4%,–,79.4 ± 4.6; 4%,108.1 ± 6.5; 3%,–
COc1ccc(C2C(C(=O)c3ccc4c(c3)OCCO4)=C(O)C(=O)N2c2nc3ccc(Cl)cc3s2)cc1OC (stereo not shown) [ADMRC157],109.2 ± 1.5; 4%,–,89.1 ± 2.8; 4%,102.1 ± 0.01; 3%,–
COc1cc(C2C(C(=O)c3ccc4c(c3)OCCO4)=C(O)C(=O)N2c2nc3ccc(Cl)cc3s2)ccc1O (stereo not shown) [ADMRC158],97.4 ± 6.1; 4%,97.4 ± 6.1,–,–,activity at 30 µM [2]: 85.3 ± 8.7%; TbTryS Activity ± 2σn-1 (%) ([3]; 30 µM): 119.1 ± 4.6; 5 (0.88) %; activity at 30 µM [3]: 119%
O=C(C1=C(O)C(=O)N(c2nc3ccc(Cl)cc3s2)C1c1ccccc1)c1ccc2c(c1)OCCO2 (stereo not shown) [ADMRC159],97.2 ± 7.8; 2%,–,64.1 ± 2.7; 4%,91.7 ± 6.5; 3%,% LiTryS inhibition ± 2σn-1 [2]: ~35%
COc1ccc(C2C(C(=O)c3ccc4c(c3)OCCO4)=C(O)C(=O)N2c2nc3ccc(OC)cc3s2)cc1 (stereo not shown) [ADPKN160],97.6 ± 3.7; 4%,97.6 ± 3.7,–,–,activity at 30 µM [2]: 77.9 ± 3.6%; TbTryS Activity ± 2σn-1 (%) ([3]; 30 µM): 116.4 ± 4.2; 4 (0.87) %; activity at 30 µM [3]: 116%
O=C(C1=C(O)C(=O)N(c2nc3ccccc3s2)C1c1ccc(F)cc1)c1ccc2c(c1)OCCO2 (stereo not shown) [ADPKN161],90.8 ± 5.8; 4%,90.8 ± 5.8,–,–,activity at 30 µM [2]: 83.5 ± 9.2%; activity at 30 µM [3]: 127%
COc1ccc(C2C(C(=O)c3ccc(OC)c(OC)c3)=C(O)C(=O)N2c2nc3ccc(Cl)cc3s2)cc1 (stereo not shown) [ADPKN163],113.6 ± 3.4; 4%,–,82.3 ± 7.7; 3%,88.0 ± 5.0; 4%,–

Structure (SMILES),TcTryS Activity ± 2σn-1 (%) [1],remaining activity at 30 µM [1] [%],LiTryS Activity ± 2σn-1 (%) [2],TbTryS Activity ± 2σn-1 (%) [3],further results
COc1ccc(C(=O)C2=C(O)C(=O)N(c3nc4ccc(Cl)cc4s3)C2c2ccc(F)cc2)cc1OC (stereo not shown) [ADPKN164],99.6 ± 5.7; 4%,99.6 ± 5.7,–,–,inhibition at 30 µM ([2]; read-out: % LiTryS inhibition ± 2σn-1): ~35%; activity at 30 µM [2]: 66 ± 3.4%; TbTryS Activity ± 2σn-1 (%) ([3]; 30 µM): 123.2 ± 7.0; 4 (0.83) %; activity at 30 µM [3]: 123%
COc1ccc(C2C(C(=O)c3ccc4c(c3)OCCO4)=C(O)C(=O)N2c2nc3ccccc3s2)cc1 (stereo not shown) [ADPKN165],107.1 ± 4.5; 4%,107 ± 4.5,–,–,activity at 30 µM [2]: 83.5 ± 6%; activity at 30 µM [3]: 166%
COc1ccc(C2C(C(=O)c3ccc(OC)c(OC)c3)=C(O)C(=O)N2c2nc3ccc(OC)cc3s2)cc1 (stereo not shown) [ADPKN 162],98.1 ± 4.7; 4%,–,79.8 ± 3.4; 4%,82.0 ± 1.6; 3%,–
COc1ccc(CNCCCNCc2ccc(OC)cc2)cc1 [APC1-67],–,92.4,–,–,activity at 30 µM [2]: 102%; activity at 30 µM [3]: 71.9%
c1ccc(COc2ccc(CNCCCNCc3ccc(OCc4ccccc4)cc3)cc2)cc1 [APC1-71B],99.0 ± 19.1; 2%,–,80.8 ± 8.7; 3%,66.0 ± 0.7; 3%,–
COc1cc(CNCCCNCc2ccc(OCc3ccccc3)c(OC)c2)ccc1OCc1ccccc1 [APC1-79],63.3 ± 2.7; 2%,–,72.1 ± 3.4; 4 (1.27) %,66.0 ± 2.9; 4%,–
COc1cc(CNCCCNCc2ccc(O)c(OC)c2)ccc1O [APC1-82],92.9 ± 5.6; 4%,–,84.9 ± 0.9; 4%,88.1 ± 4.4; 3%,–
c1ccc(COc2ccc(CNCCCCNCc3ccc(OCc4ccccc4)cc3)cc2)cc1 [APC1-87],–,73.4,–,–,inhibition at 30 µM [1]: 26.6 ± 4.1%; IC50 ([2]; read-out: LiTryS IC50 (estimated)): ~30 µM; inhibition at 30 µM ([3]; read-out: % TbTryS inhibition ± 2σn-1): 37.9 ± 4%; activity at 30 µM [3]: 62.1%
COc1cc(CNCCCCNCc2ccc(O)c(OC)c2)ccc1O [APC1-93],94.4 ± 2.4; 4%,–,101.3 ± 8.7. 4%,94.0 ± 9.1; 5%,–
COc1ccc(CNCCCCCCNCc2ccc(OC)cc2)cc1 [APC1-98],94.2 ± 5.5; 2%,–,79.6 ± 5.6; 4%,72.8 ± 3.7; 4%,–
c1ccc(COc2ccc(CNCCCCCCNCc3ccc(OCc4ccccc4)cc3)cc2)cc1 [APC1-99],–,66.6,–,–,inhibition at 30 µM [1]: 33.4 ± 4.1%; IC50 [3]: ~30 µM
c1ccc(COc2ccc(CNCCCCCCCCNCc3ccc(OCc4ccccc4)cc3)cc2)cc1 [APC1-109],66.2 ± 10.9; 2%,–,72.2 ± 6.2; 4%,–,–
c1ccc(CNCCCCCCCCCCNCc2ccccc2)cc1 [APC1-113],88.5 ± 6.6; 3%,–,86.9 ± 6.3; 3%,89.5 ± 3.6; 3%,–
COc1ccc(CNCCCCCCCCCCNCc2ccc(OC)cc2)cc1 [APC1-115],76.1 ± 2.5; 4%,–,79.8 ± 2.3; 3%,69.0 ± 6.3; 3%,–
c1ccc(COc2ccc(CNCCCCCCCCCCNCc3ccc(OCc4ccccc4)cc3)cc2)cc1 [APC1-117],90.8 ± 12.3; 2%,–,69.8 ± 6.5; 3%,71.4 ± 6.1; 4%,–
"CN1CCN(CCCN2c3ccccc3Sc3ccc(Cl)cc32)CC1 [prochlorperazine, reference compound]",–,–,–,–,inhibition of TcTryS [1]: none of the TryS was inhibited; reduction of TcTryS activity [1]: 34%
